Measurements: PubChem BioAssay AID1919000 (Molecular Pharmacology Branch, DTP, NCI, 2023)
Where “and” joins values, the source holds several entries; their conditions need not be identical. Equal values may be shown once.

System: 653999-131-R-J2-PDC complex spheroids, growth % test/control
Test: Anticancer human tumor 653999-131-R-J2-PDC patient-derived lung adenocarcinoma cell line growth inhibition [AhR]
Details: for viability, T/C: stronger effect = lower value
Method in brief: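 Complex tumor spheroids co-cultured with HUVEC and human MSC stroma; AhR antagonists tested in combination with standard-of-care and investigational agents. Top concentration at or near clinical Cmax (else 10 microM), half-log dilutions; growth expressed as percent test/control.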

[1] = curve of first compound, second compound 0.1 µM
[2] = curve of first compound, second compound 0.316 µM
[3] = curve of first compound, second compound 1 µM
[4] = curve of first compound, second compound 3.16 µM
[5] = curve of first compound, second compound 10 µM
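Also: spheroids exposed to agents for seven days.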
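For viability, T/C in this document: 100% = DMSO vehicle control viability.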

`CCc1c2c(nc3ccc(O)cc13)-c1cc3c(c(=O)n1C2)COC(=O)[C@]3(O)CC` + Cc1ccccc1N=Nc1ccc(NC(=O)c2ccnn2C)c(C)c1 gave an IC50 [1] of 11.5 nM, an IC50 [2] of 10.9 nM and an IC50 [3] of 9.66 nM. It also gave an IC50 [4] of 9.18 nM, an IC50 [5] of 10.2 nM and a viability, T/C (second compound 0.1 µM, first compound 0.000949 µM) of 94.8%. It also gave a viability, T/C (second compound 0.1 µM, first compound 0.003 µM) of 76.6%, a viability, T/C (second compound 0.1 µM, first compound 0.00949 µM) of 51% and a viability, T/C (second compound 0.1 µM, first compound 0.03 µM) of 34.7%. The viability, T/C (second compound 0.1 µM, first compound 0.0949 µM) was 29.7%, the viability, T/C (second compound 0.1 µM, first compound 0.3 µM) was 17.4% and the viability, T/C (second compound 0.316 µM, first compound 0.000949 µM) was 88%. For the same molecule, the viability, T/C (second compound 0.316 µM, first compound 0.003 µM) was 80.6%, the viability, T/C (second compound 0.316 µM, first compound 0.00949 µM) was 49.7% and the viability, T/C (second compound 0.316 µM, first compound 0.03 µM) was 32.9%. For the same molecule, the viability, T/C (second compound 0.316 µM, first compound 0.0949 µM) was 30.1%, the viability, T/C (second compound 0.316 µM, first compound 0.3 µM) was 17.7% and the viability, T/C (second compound 1 µM, first compound 0.000949 µM) was 85.6%. For the same molecule, the viability, T/C (second compound 1 µM, first compound 0.003 µM) was 72.6%, the viability, T/C (second compound 1 µM, first compound 0.00949 µM) was 46% and the viability, T/C (second compound 1 µM, first compound 0.03 µM) was 37.3%. For the same molecule, the viability, T/C (second compound 1 µM, first compound 0.0949 µM) was 25.4%, the viability, T/C (second compound 1 µM, first compound 0.3 µM) was 19.2% and the viability, T/C (second compound 3.16 µM, first compound 0.000949 µM) was 81.3%. For the same molecule, the viability, T/C (second compound 3.16 µM, first compound 0.003 µM) was 65%, the viability, T/C (second compound 3.16 µM, first compound 0.00949 µM) was 51.3% and the viability, T/C (second compound 3.16 µM, first compound 0.03 µM) was 32.5%. It also gave a viability, T/C (second compound 3.16 µM, first compound 0.0949 µM) of 25.2%, a viability, T/C (second compound 3.16 µM, first compound 0.3 µM) of 14.7% and a viability, T/C (second compound 10 µM, first compound 0.000949 µM) of 73.6%. The viability, T/C (second compound 10 µM, first compound 0.003 µM) was 62.2%, the viability, T/C (second compound 10 µM, first compound 0.00949 µM) was 49.7% and the viability, T/C (second compound 10 µM, first compound 0.03 µM) was 41%. It also gave a viability, T/C (second compound 10 µM, first compound 0.0949 µM) of 27.5% and a viability, T/C (second compound 10 µM, first compound 0.3 µM) of 18.4%.
In the case of `O=C(C=Cn1cnc(-c2cc(C(F)(F)F)cc(C(F)(F)F)c2)n1)NNc1cnccn1`, the viability, T/C (compound 0.00949 µM) is reported as 104% and 94.3% and 105%, the viability, T/C (compound 0.03 µM) is reported as 73.3% and 78.8% and 101% and the viability, T/C (compound 0.0949 µM) is reported as 61.6% and 77.7% and 76.8%. The viability, T/C (compound 0.3 µM) was 49.5% and 51.9% and 57.9%, the viability, T/C (compound 0.949 µM) was 40.9% and 40.5% and 50.6% and the viability, T/C (compound 3 µM) was 40.6% and 47.6% and 43%. The IC50 (curve of compound) was 264 nM and 423 nM and 743 nM.
For `COc1cc(Nc2ncc3c(n2)-c2ccc(Cl)cc2C(c2c(F)cccc2OC)=NC3)ccc1C(=O)O` + Cc1ccccc1N=Nc1ccc(NC(=O)c2ccnn2C)c(C)c1, the IC50 [1] was > 10000 nM, the IC50 [2] was > 10000 nM and the IC50 [3] was > 10000 nM. For the same molecule, the IC50 [4] was > 10000 nM, the IC50 [5] was > 10000 nM and the viability, T/C (second compound 0.1 µM, first compound 0.0316 µM) was 87.8%. It also gave a viability, T/C (second compound 0.1 µM, first compound 0.1 µM) of 74.9%, a viability, T/C (second compound 0.1 µM, first compound 0.316 µM) of 71.1% and a viability, T/C (second compound 0.1 µM, first compound 1 µM) of 58.2%. The viability, T/C (second compound 0.1 µM, first compound 3.16 µM) was 57.1%, the viability, T/C (second compound 0.1 µM, first compound 10 µM) was 64.3% and the viability, T/C (second compound 0.316 µM, first compound 0.0316 µM) was 93.4%. For the same molecule, the viability, T/C (second compound 0.316 µM, first compound 0.1 µM) was 70.9%, the viability, T/C (second compound 0.316 µM, first compound 0.316 µM) was 71.9% and the viability, T/C (second compound 0.316 µM, first compound 1 µM) was 67.3%. It also gave a viability, T/C (second compound 0.316 µM, first compound 3.16 µM) of 57.9%, a viability, T/C (second compound 0.316 µM, first compound 10 µM) of 60.1% and a viability, T/C (second compound 1 µM, first compound 0.0316 µM) of 81%. It also gave a viability, T/C (second compound 1 µM, first compound 0.1 µM) of 74%, a viability, T/C (second compound 1 µM, first compound 0.316 µM) of 66.8% and a viability, T/C (second compound 1 µM, first compound 1 µM) of 62.2%. It also gave a viability, T/C (second compound 1 µM, first compound 3.16 µM) of 60.6%, a viability, T/C (second compound 1 µM, first compound 10 µM) of 53.8% and a viability, T/C (second compound 3.16 µM, first compound 0.0316 µM) of 83%. It also gave a viability, T/C (second compound 3.16 µM, first compound 0.1 µM) of 62.8%, a viability, T/C (second compound 3.16 µM, first compound 0.316 µM) of 70.5% and a viability, T/C (second compound 3.16 µM, first compound 1 µM) of 61.2%. The viability, T/C (second compound 3.16 µM, first compound 3.16 µM) was 62.9%, the viability, T/C (second compound 3.16 µM, first compound 10 µM) was 54.6% and the viability, T/C (second compound 10 µM, first compound 0.0316 µM) was 80.2%. For the same molecule, the viability, T/C (second compound 10 µM, first compound 0.1 µM) was 66.9%, the viability, T/C (second compound 10 µM, first compound 0.316 µM) was 63.2% and the viability, T/C (second compound 10 µM, first compound 1 µM) was 71%. It also gave a viability, T/C (second compound 10 µM, first compound 3.16 µM) of 56.5% and a viability, T/C (second compound 10 µM, first compound 10 µM) of 54.4%.
